Drawing on patent publication US12162848B2, “Inhibitors of protein tyrosine phosphatase, compositions, and methods of use” (BRISTOL-MYERS SQUIBB COMPANY, priority 2022, dated 2024), this text covers IC50 and EC50 for 13 compounds.

One assay has as its target T1, PTPN2 enzyme (Homo sapiens, UniProt P17706).
T1 sequence (P17706 1-415): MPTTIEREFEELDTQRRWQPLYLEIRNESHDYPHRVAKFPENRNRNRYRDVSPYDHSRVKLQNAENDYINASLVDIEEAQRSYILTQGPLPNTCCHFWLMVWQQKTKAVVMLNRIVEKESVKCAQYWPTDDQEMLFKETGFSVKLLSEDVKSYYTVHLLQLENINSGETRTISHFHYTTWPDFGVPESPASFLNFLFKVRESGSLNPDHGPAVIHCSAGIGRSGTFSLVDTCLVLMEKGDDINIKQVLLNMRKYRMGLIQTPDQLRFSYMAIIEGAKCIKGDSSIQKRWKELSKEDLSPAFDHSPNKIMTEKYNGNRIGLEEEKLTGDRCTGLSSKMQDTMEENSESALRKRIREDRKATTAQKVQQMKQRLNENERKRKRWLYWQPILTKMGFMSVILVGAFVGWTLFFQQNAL
Description: PhosphoSens PTPN2 biochemical assay. The settings on record: substrate AQT0264 20 μM, room temperature; read-out: PTPN2 BCHEM IC50. As to the method: A PhosphoSens® kinase assay was performed as described by the vendor (AssayQuant Technologies, Marlborough, MA). Briefly, 1000×solutions of compounds were prepared in DMSO via serial dilution of the 10 mM DMSO stocks using 3-fold intervals in a 384-well reagent plate. 50 nL of the compound dilution series was then added to the corresponding wells of a 384-well assay plate. […] of 1.25×substrate (AQT0264) in 1× assay buffer (50 mM HEPES pH 7.5, 500 μM EGTA, […] MgCl2, 0.01% Brij-35, 1% Glycerol, 1 mM DTT, and 0.2 mg/mL BSA) was transferred to each well of the assay plate to achieve a final substrate concentration of 20 μM. Finally, […] of 5×PTPN2 enzyme stock was added to each well of the assay plate for a final enzyme concentration of […]. Reaction progress curves were collected by sampling fluorescence intensity at the excitation wavelength 360 nm (λex360) and emission wavelength 480 nm (λem480) every 71 seconds for one hour using a Synergy H4 plate reader (BioTek Instruments/Agilent Technologies, Winooski, VT) at room temperature.

Assay [1] concerns phosphorylated STAT1 protein levels in B16-F10 cells. Description: Phospho-STAT1 (Tyr701) HTRF assay in IFN-gamma treated B16-F10 cells. Format: cell-based. The settings on record: mouse IFN-gamma 100 ng/mL, 1 hour, read-out: pSTAT1 HTRF B16 EC50. Here is the method:
B16-F10 cells (ATCC, Manassas, VA, #CRL-6475) were cultured in DMEM growth medium (ThermoFisher Scientific, Waltham, MA, #11995-040) supplemented with 10% heat inactivated FBS (ThermoFisher Scientific, #16140-071) and 1% pen/strep (ThermoFisher Scientific, #15140-122). The cells were seeded into a white opaque 384-well tissue culture treated microplate (PerkinElmer, Waltham, MA, #6007688) at a density of 10,000 cells/well in 20 uL total volume and incubated overnight at 37 C and 5% CO2. 30 nL of compounds dissolved in DMSO were then transferred from a source plate into target wells with the Echo650 acoustic liquid handler (Beckman Coulter, Indianapolis, IN). Negative control wells received 30 nL of DMSO only (0.15% final concentration). Plates were returned to the incubator for 1 hour and then cells treated with either 5 uL of growth medium or 5 uL of growth medium containing 500 ng/mL of recombinant mouse IFN-gamma protein (R&D Systems, Minneapolis, MN, #485-MI/CF, 100 ng/mL final concentration) using the Assist automated pipetting platform (INTEGRA Biosciences, Hudson, NH). Plates were incubated at 37 C for 1 hour and assayed for phosphorylated STAT1 protein levels with the phospho-STAT1 (Tyr701) HTRF kit (Cisbio, Bedford, MA, #63ADK026PEH) according to manufacturer's instructions.
A general note: TR-FRET usually uses a lanthanide donor and a delayed reading to cut background.

pEC50, pIC50: −log10 of the molar value.

Broadly, the pIC50 is −log10 of the IC50, conventionally taken in molar units. With `O=C1CN(c2c(O)cc(C3CCNCC3)cc2F)S(=O)(=O)N1` [EXAMPLE 2, 5-[2-fluoro-6-hydroxy-4-(4-piperidyl)phenyl]-1,1-dioxo-1,2,5-thiadiazolidin-3-one], on PTPN2 enzyme, the negative logarithm of the IC50 (pIC50) is 5.89.

On to `CN1CCCC(c2cc(O)c(N3CC(=O)NS3(=O)=O)c(F)c2)C1` (centres unmarked) [EXAMPLE 3, 5-(2-fluoro-6-hydroxy-4-(1-methylpiperidin-3-yl)phenyl)-1,2,5-thiadiazolidin-3-one 1,1-dioxide], for which the negative logarithm of the IC50 (pIC50) on PTPN2 enzyme was 5.33.

In the case of `CC(C)CCN1CCC(c2cc(O)c(N3CC(=O)NS3(=O)=O)c(F)c2)CC1` [EXAMPLE 6, 5-[2-fluoro-6-hydroxy-4-(1-isopentyl-4-piperidyl)phenyl]-1,1-dioxo-1,2,5-thiadiazolidin-3-one], the pIC50 at PTPN2 enzyme is 5.56.

A word on the pEC50: it is the negative decadic logarithm of the EC50, by convention in mol/L. For the compound `COc1ncccc1-c1cc(O)c(N2CC(=O)NS2(=O)=O)c(F)c1` [EXAMPLE 25, 5-[2-fluoro-6-hydroxy-4-(2-methoxy-3-pyridyl)phenyl]-1,1-dioxo-1,2,5-thiadiazolidin-3-one], the pEC50 in assay [1] was 5.01. For the same compound, the pIC50 on PTPN2 enzyme was 6.58.

For the compound `CC(=O)N1CCN(Cc2cc(O)c(N3CC(=O)NS3(=O)=O)c(F)c2)CC1` [EXAMPLE 38, 5-(4-((4-acetylpiperazin-1-yl)methyl)-2-fluoro-6-hydroxyphenyl)-1,2,5-thiadiazolidin-3-one 1,1-dioxide], the pIC50 at PTPN2 enzyme is 7.08.

With `N#Cc1cc(CNCc2cc(O)c(N3CC(=O)NS3(=O)=O)c(F)c2)ccc1F` [EXAMPLE 45, 2-fluoro-5-[[[3-fluoro-5-hydroxy-4-(1,1,4-trioxo-1,2,5-thiadiazolidin-2-yl)phenyl]methylamino]methyl]benzonitrile], the pEC50 in assay [1] is 5.73. Moreover, the pIC50 at PTPN2 enzyme was 7.15.

As to `CC(C)OC1CCN(Cc2cc(O)c(N3CC(=O)NS3(=O)=O)c(F)c2)CC1` [EXAMPLE 54, 5-[2-fluoro-6-hydroxy-4-[(4-isopropoxy-1-piperidyl)methyl]phenyl]-1,1-dioxo-1,2,5-thiadiazolidin-3-one], the pEC50 in assay [1] is 4.88. The negative logarithm of the IC50 (pIC50) on PTPN2 enzyme was 6.48.

Consider `COCCC1CCN(Cc2cc(O)c(N3CC(=O)NS3(=O)=O)c(F)c2)CC1` [EXAMPLE 55, 5-[2-fluoro-6-hydroxy-4-[[4-(2-methoxyethyl)-1-piperidyl]methyl]phenyl]-1,1-dioxo-1,2,5-thiadiazolidin-3-one], for which, in assay [1], the negative-log EC50 (pEC50) is 4.95. In addition, at PTPN2 enzyme, the pIC50 is 6.40.

For the compound `CN(Cc1cc(O)c(N2CC(=O)NS2(=O)=O)c(F)c1)C1CCC(C)(C)CC1` [EXAMPLE 77, 5-[4-[[(4,4-dimethylcyclohexyl)-methyl-amino]methyl]-2-fluoro-6-hydroxy-phenyl]-1,1-dioxo-1,2,5-thiadiazolidin-3-one], the pEC50 in assay [1] is at most 4.82.

On to `O=C1CN(c2c(O)cc(NC3CCNCC3)cc2F)S(=O)(=O)N1` [EXAMPLE 88, 5-(2-fluoro-6-hydroxy-4-(piperidin-4-ylamino)phenyl)-1,2,5-thiadiazolidin-3-one 1,1-dioxide], for which, at PTPN2 enzyme, the pIC50 is 5.92.

With `O=C1CN(c2c(O)ccc(CN3CCC(F)CC3)c2F)S(=O)(=O)N1` [EXAMPLE 98, 5-(2-fluoro-3-((4-fluoropiperidin-1-yl)methyl)-6-hydroxyphenyl)-1,2,5-thiadiazolidin-3-one 1,1-dioxide], the pEC50 in assay [1] is at most 4.82.

In the case of `CN(C)C1CCN(Cc2ccc(O)c(N3CC(=O)NS3(=O)=O)c2F)CC1` [EXAMPLE 102, 5-(3-((4-(dimethylamino)piperidin-1-yl)methyl)-2-fluoro-6-hydroxyphenyl)-1,2,5-thiadiazolidin-3-one 1,1-dioxide], the pEC50 in assay [1] is at most 4.82.

Consider `CC(C)CCN1CCN(Cc2ccc(O)c(N3CC(=O)NS3(=O)=O)c2F)CC1` [EXAMPLE 104, 5-[2-fluoro-6-hydroxy-3-[(4-isopentylpiperazin-1-yl)methyl]phenyl]-1,1-dioxo-1,2,5-thiadiazolidin-3-one], for which the negative-log EC50 (pEC50) in assay [1] was at most 4.82.
